Laboratory results as given in ChEMBL document CHEMBL1143450, “Potential metabolites of a condensed 2,3-benzodiazepine derivative” (Bioorg Med Chem Lett, 2005).
One block for each molecule: values may come before it.

Assays:
Gallus gallus [1] = species on record: Gallus gallus; test: Evaluated for inhibition of AMPA (5 uM) evoked spreading depression in isolated retina prepared from young chicken; format: functional
Mus musculus [2] = test: Effective i.p. dose tested for muscle relaxant activity using inclined screen test in mouse (value range= 29.4-45.2 mg/kg); settings: ip
Mus musculus [3] = test: Effective p.o. dose tested for anticonvulsant activity using maximal electroshock seizure model in mouse (value range= 17.9-32.1 mg/kg); settings: po
Mus musculus [4] = test: Effective i.p. dose tested for muscle relaxant activity using inclined screen test in mouse (value range=100-200 mg/kg); settings: ip
Mus musculus [5] = test: Effective p.o. dose tested for anticonvulsant activity using maximal electroshock seizure model in mouse (value range=25-50 mg/kg); settings: po
Gallus gallus [6] = species on record: Gallus gallus; test: Evaluated for inhibition of AMPA (5 uM) evoked spreading depression in isolated retina prepared from young chicken at 20 uM; format: functional
Mus musculus [7] = test: Effective i.p. dose tested for muscle relaxant activity using inclined screen test in mouse (highest test concentration); settings: ip
Mus musculus [8] = test: Effective p.o. dose tested for anticonvulsant activity using maximal electroshock seizure model in mouse (highest test concentration); settings: po
Mus musculus [9] = test: as above; settings: po; remark: listed apart in the source
Mus musculus [10] = test: Effective p.o. dose tested for anticonvulsant activity using maximal electroshock seizure model in mouse (SMA); settings: po
Mus musculus [11] = test: Effective p.o. dose tested for anticonvulsant activity using maximal electroshock seizure model in mouse; settings: po
Mus musculus [12] = test: Effective p.o. dose tested for anticonvulsant activity using maximal electroshock seizure model in mouse (high test concentration); settings: po
Mus musculus [13] = test: Effective i.p. dose tested for muscle relaxant activity using inclined screen test in mouse (value range= 11.2-16.0 mg/kg); settings: ip

SMILES: Nc1ccc(C2=Nn3cc(CO)nc3Cc3ccc(Cl)cc32)cc1
- IC50 (Gallus gallus [1]): 5 µM
- ED50 (Mus musculus [4]): 200 mg/kg
- ED50 (Mus musculus [5]): 50 mg/kg

SMILES: CC(=O)Nc1ccc(C2=Nn3cc(C(=O)O)nc3Cc3ccc(Cl)cc32)cc1
- Inhibition (Gallus gallus [6]): 33%
- ED50 (Mus musculus [7]): > 200 mg/kg
- ED50 (Mus musculus [8]): > 100 mg/kg

SMILES: Nc1ccc(C2=Nn3cc(C(=O)O)nc3Cc3ccc(Cl)cc32)cc1
- Inhibition (Gallus gallus [6]): 55%
- ED50 (Mus musculus [7]): > 200 mg/kg
- ED50 (Mus musculus [9]): > 100 mg/kg

SMILES: CC(=O)Nc1ccc(C2=Nn3cc(CO)nc3Cc3ccc(Cl)cc32)cc1
- ED50 (Mus musculus [10]): > 100 mg/kg

SMILES: CC(=O)N1N=C(c2ccc(N)cc2)c2cc3c(cc2C[C@H]1C)OCO3 [TALAMPANEL]
- ED50 (Mus musculus [13]): 13.4 mg/kg

Continued, in another order:

- IC50 (Gallus gallus [1]): 7.3 µM
SMILES: Cc1cn2c(n1)Cc1ccc(Cl)cc1C(c1ccc(N)cc1)=N2
- ED50 (Mus musculus [2]): 36.5 mg/kg
- ED50 (Mus musculus [3]): 24 mg/kg

- IC50 (Gallus gallus [1]): > 20 µM
SMILES: CC(=O)Nc1ccc(C2=Nn3cc(C)nc3Cc3ccc(Cl)cc32)cc1
- ED50 (Mus musculus [11]): 56 mg/kg
- ED50 (Mus musculus [7]): > 200 mg/kg

- IC50 (Gallus gallus [1]): 20 µM
SMILES: CCOC(=O)c1cn2c(n1)Cc1ccc(Cl)cc1C(c1ccc(N)cc1)=N2
- ED50 (Mus musculus [7]): > 200 mg/kg
- ED50 (Mus musculus [12]): > 100 mg/kg
